Laboratory results taken from article PMC4336144, “Screening the Medicines for Malaria Venture "Malaria Box" against the Plasmodium falciparum Aminopeptidases, M1, M17 and M18” (PLoS ONE, 2015).
Values belong to the compound of their own block, whether it stands above or below them.

Assays:
[1] = biological target: T1, PfA-M17 (Plasmodium falciparum, UniProt Q8IL11); assay: Secondary screening against individual enzyme; type: biochemical; conditions: 100 μM compound
T1 construct: made in house; host or cells: Escherichia coli
T1 sequence (Q8IL11 84-605 limits assumed): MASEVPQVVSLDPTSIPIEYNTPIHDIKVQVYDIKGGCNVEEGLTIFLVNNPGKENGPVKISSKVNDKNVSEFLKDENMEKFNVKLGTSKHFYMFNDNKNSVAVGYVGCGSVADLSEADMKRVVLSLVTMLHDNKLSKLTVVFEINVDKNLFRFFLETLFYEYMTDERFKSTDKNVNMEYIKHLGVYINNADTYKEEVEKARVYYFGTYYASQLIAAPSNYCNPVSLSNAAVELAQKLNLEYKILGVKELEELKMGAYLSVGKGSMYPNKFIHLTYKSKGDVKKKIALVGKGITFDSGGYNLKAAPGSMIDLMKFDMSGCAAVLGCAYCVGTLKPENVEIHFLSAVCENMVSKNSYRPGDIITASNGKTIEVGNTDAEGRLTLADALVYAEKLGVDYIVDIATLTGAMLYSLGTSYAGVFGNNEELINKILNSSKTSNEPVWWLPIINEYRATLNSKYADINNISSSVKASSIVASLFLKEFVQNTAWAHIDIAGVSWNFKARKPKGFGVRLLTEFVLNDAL
Description: (§1) Aminopeptidase activity of each individual enzyme in the presence of a single MMV compound (100 μM) was determined using Leu-Mec for both PfA-M1 (15 nM) and PfA-M17 (80 nM) or Glu-pNA for PfM18AAP (125 nM). Reactions were carried out in 96-well microtitre plates (200 μl total volume) in 50 mM Tris-HCl pH 8.0, 2 mM CoCl2 at 37°C. Following a 10 min incubation (enzyme and compound) at 37°C, reactions were initiated by addition of enzyme specific substrate. Progress curves were monitored using a FLUOstar Omega multimode reader (BMG LabTech) for 1.5 h at 37°C. As activity references, individual enzyme 'no compound' controls and 'positive inhibitor' controls were included in each 96 well plate assay. We applied a cut-off of < 10% activity in the presence of 100 μM compound for selection to the next phase. Compounds that were selected to proceed were then used in further assays to obtain n = 3.

[2] = biological target: T2, PfA-M1 (Plasmodium falciparum, UniProt O96935); assay: Secondary screening against individual enzyme; type: biochemical; conditions: 100 μM compound; for PfA-M1 activity retained in the presence of compound: n = 3, of total enzyme activity; for reduction of PfA-M1 activity: n = 3
T2 construct: made in house; host or cells: Escherichia coli
T2 sequence (O96935 195-1085 limits assumed): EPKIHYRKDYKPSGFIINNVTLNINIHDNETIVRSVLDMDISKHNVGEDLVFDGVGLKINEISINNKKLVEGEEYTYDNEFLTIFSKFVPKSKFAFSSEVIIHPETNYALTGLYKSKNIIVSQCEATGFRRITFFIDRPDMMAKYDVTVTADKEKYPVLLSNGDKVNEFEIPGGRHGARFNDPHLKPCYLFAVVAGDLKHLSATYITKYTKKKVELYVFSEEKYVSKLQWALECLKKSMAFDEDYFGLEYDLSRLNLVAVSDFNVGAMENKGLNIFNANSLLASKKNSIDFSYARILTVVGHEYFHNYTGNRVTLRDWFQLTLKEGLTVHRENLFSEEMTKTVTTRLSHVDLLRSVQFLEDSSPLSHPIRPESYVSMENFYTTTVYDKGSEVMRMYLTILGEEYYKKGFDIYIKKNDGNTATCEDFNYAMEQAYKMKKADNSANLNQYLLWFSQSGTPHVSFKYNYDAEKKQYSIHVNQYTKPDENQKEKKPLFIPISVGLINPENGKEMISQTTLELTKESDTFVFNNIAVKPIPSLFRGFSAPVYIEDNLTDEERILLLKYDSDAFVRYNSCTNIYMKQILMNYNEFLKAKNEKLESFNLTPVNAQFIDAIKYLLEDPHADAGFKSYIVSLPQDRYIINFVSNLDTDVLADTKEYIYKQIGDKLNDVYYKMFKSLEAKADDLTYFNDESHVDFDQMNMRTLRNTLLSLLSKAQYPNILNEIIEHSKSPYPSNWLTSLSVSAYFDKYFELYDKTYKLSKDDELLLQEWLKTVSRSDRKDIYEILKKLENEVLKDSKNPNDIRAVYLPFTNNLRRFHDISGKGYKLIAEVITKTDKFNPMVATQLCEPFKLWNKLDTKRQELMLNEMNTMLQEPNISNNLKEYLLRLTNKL
Description: as §1

[3] = biological target: T1, PfA-M17; assay: Determination of Ki values (Dixon plots, H-Leu-NHMec); type: biochemical; conditions: for loss in inhibitory activity against PfA-M17: compared to parent MMV020750
Description: (§2) MMV020750 was purchased from InterBioScreen (catalog number STOCK2S-51608) and MMV666023 was purchased from ChemBridge (catalog number 5566248). The MMV020750 derivatives 1, 2 and 3 were purchased from Ambinter (catalog numbers AMB425981, AMB2311364 and AMB8506251 respectively). 4-(4,5-Diphenyl-1H-imidazol-2-yl)benzoic acid (4) was purchased from TCI Chemicals, while 4-(4,5-diphenyl-1H-imidazol-2-yl)-N-hydroxybenzamide (5) was prepared from 4 as described (S1 Methods). Aminopeptidase activity of both PfA-M1 and PfA-M17 enzymes was determined by measuring the release of the fluorogenic leaving group, NHMec, from the fluorogenic peptide L-Leucine-7-amido-4-methylcoumarin hydrochloride (H-Leu-NHMec) (Sigma L2145). The assay protocol devised by Stack CM, et al, (J. Biol Chem, 2007) was modified and used, with the reactions were carried out at 37°C and monitored using a spectrofluorometer (BMG FLUOstar) with excitation at 355 nm and emission at 460 nm. Each enzyme was pre-incubated in 50 mM Tris pH 8.0, 2 mM CoCl2; 5% DMSO with each inhibitor for 10 min prior to the addition of substrate. Inhibitor concentration was assayed between 0 and 500 μM final for each compound, and repeated over a narrowed range if necessary. The fluorescence signal was monitored until a final steady state velocity, V, was obtained. The K i values were then evaluated using Dixon plots of 1/V versus inhibitor concentration while the substrate concentration was maintained lower than that of the Km of the enzyme.
This was a particular problem with the PfA-M17 enzyme assays where we noted that at higher concentrations of 4, a decrease in fluorescence was observed. We hypothesise that this is a result of PfA-M17 binding to the compound and quenching the intrinsic fluorescence. […] We therefore chose to analyse a reduced concentration range for 4.

[4] = biological target: T2, PfA-M1; assay: as above; type: biochemical; conditions: for Ki / Ki PfA-M1: Dixon plot; for Ki: read-out: Ki PfA-M1
Description: as §2

[5] = tested on: PfA-M1 and/or PfA-M17; assay: Multiplex primary screen, fluorogenic substrate Leu-Mec; type: biochemical, Plasmodium falciparum; conditions: 100 μM compound, multiplex assay
Description: A multiplex enzyme assay was developed to complete the primary screen of 400 compounds that were provided to us by MMV and SCYNEXIS. Combined PfMAP (15 nM PfA-M1; 80 nM PfA-M17 and 125 nM PfM18AAP) aminopeptidase activity in the presence of a single MMV compound (100 μM solubilized in 100% dimethyl sulfoxide, DMSO, final DMSO concentration in assay = 10%) was determined by simultaneous measurement of the release of the fluorogenic leaving group, -NHMec, from L-Leucine-7-amido-4-methylcoumarin-HCl (Leu-Mec) (Sigma) as well as the hydrolysis of p-nitroanilide from the chromogenic substrate, L-Glutamic acid p-nitroanilide (Glu-pNA) (Sigma). The fluorogenic substrate records the combined activity of PfA-M1 and PfA-M17 while the p-nitroanilide substrate is specific for PfM18AAP. Reactions were carried out in 96-well microtitre plates (200 μL total volume) in 50 mM Tris-HCl pH 8.0, 2 mM CoCl2 at 37°C. Following a 10 min incubation (multi-enzyme and single compound) at 37°C, reactions were initiated by addition of both fluorogenic and chromagenic substrates. Progress curves were monitored using a FLUOstar Omega multimode reader (BMG LabTech) for 1.5 h at 37°C. As activity references, individual enzyme and multiple enzyme 'no compound' controls and 'positive inhibitor' controls (with 10% DMSO) were included in each 96 well plate assay.

SMILES: CC(C)C[C@H](NC(=O)[C@@H](O)[C@H](N)Cc1ccccc1)C(=O)O [Bestatin, reference compound]
PfA-M17 activity, single dose secondary screen ([1]; n = 1): no neutral aminopeptidase activity is detectable
PfA-M17 activity retained in the presence of compound ([1]; n = 3): no neutral aminopeptidase activity is detectable
PfA-M1 activity, single dose secondary screen ([2]; n = 1): no neutral aminopeptidase activity is detectable
PfA-M1 activity retained in the presence of compound [2]: no neutral aminopeptidase activity is detectable

Ki ([3]; Dixon plot): > 500 µM
Ki [4]: > 500 µM
SMILES: CN(CCO)c1ccc(-c2nc(-c3ccccc3)c(-c3ccccc3)[nH]2)cc1 [Compound 1]

Ki ([3]; Dixon plot): > 500 µM
Ki [4]: > 500 µM
SMILES: COc1cc(-c2nc(-c3ccccc3)c(-c3ccccc3)[nH]2)ccc1OCC(N)=O [Compound 2]

Ki ([3]; Dixon plot): 275 µM
loss in inhibitory activity against PfA-M17 [3]: > 10 fold
Ki PfA-M1 [4]: micromolar range
Ki [4]: 120 µM
SMILES: COC(=O)c1ccc(-c2nc(-c3ccccc3)c(-c3ccccc3)[nH]2)cc1 [Compound 3]

Ki ([3]; Dixon plot): 20 to 40 µM
Ki PfA-M17 ([3]; Dixon plot): micromolar range
Ki [4]: 5.2 µM
increase in potency against PfA-M1 ([4]; compared to MMV020750): > 10 fold
SMILES: O=C(O)c1ccc(-c2nc(-c3ccccc3)c(-c3ccccc3)[nH]2)cc1 [Compound 4, 4-(4,5-Diphenyl-1H-imidazol-2-yl)benzoic acid]

Ki ([3]; Dixon plot): 187 µM
loss in inhibitory activity against PfA-M17 [3]: > 10 fold
Ki PfA-M1 [4]: micromolar range
Ki [4]: 34 µM
SMILES: O=C(NO)c1ccc(-c2nc(-c3ccccc3)c(-c3ccccc3)[nH]2)cc1 [Compound 5, 4-(4,5-diphenyl-1H-imidazol-2-yl)-N-hydroxybenzamide]

SMILES: Cc1ccnc(NC(c2cccc(OCc3ccccc3)c2)c2ccc3cccnc3c2O)c1 (stereo not drawn) [MMV000720]
Activity (PfA-M1 and/or PfA-M17) [5]: R

SMILES: Oc1ccc(-c2nc(-c3ccc4oc5ccc(-c6[nH]c(-c7ccc(O)cc7)nc6-c6ccccc6)cc5c4c3)c(-c3ccccc3)[nH]2)cc1 [MMV000753]
Activity (PfA-M1 and/or PfA-M17) [5]: R

SMILES: OCCNc1nc(Nc2ccc(Cl)c(Cl)c2)nc2ccccc12 [MMV001041]
Activity (PfA-M1 and/or PfA-M17) [5]: R

SMILES: CN(C)c1ccc(C=Cc2nc(=O)c3ccccc3o2)cc1 [MMV006309]
Activity (PfA-M1 and/or PfA-M17) [5]: R

reduction of PfA-M1 activity [2]: 89%
SMILES: Cc1cccc(N2C(=O)C3C(C2=O)C2(c4ccccc4)C(=O)C3(c3ccccc3)C(c3ccc4c(c3)OCO4)=C2c2ccc3c(c2)OCO3)c1 (stereo not drawn) [MMV007228]
Activity (PfA-M1 and/or PfA-M17) [5]: R

PfA-M1 activity retained in the presence of compound [2]: ~75%
SMILES: COc1cc(-c2nc(-c3ccc(Sc4ccccc4)cc3)c(-c3ccccc3)[nH]2)cc(OC)c1O [MMV007273]
Activity (PfA-M1 and/or PfA-M17) [5]: R

SMILES: COc1ccc2c(c1)OC(O)(C(F)(F)C(F)(F)F)CC2=O (stereo not drawn) [MMV007839]
Activity (PfA-M1 and/or PfA-M17) [5]: R

SMILES: Nc1ccc(-c2nc3cc(Oc4ccc(Oc5ccc6[nH]c(-c7ccc(N)cc7)nc6c5)cc4)ccc3[nH]2)cc1 [MMV011895]
Activity (PfA-M1 and/or PfA-M17) [5]: R

SMILES: O=C(Nc1ccc(-c2nc3cc4ccccc4cc3[nH]2)cc1)c1cccc(Br)c1 [MMV019241]
Activity (PfA-M1 and/or PfA-M17) [5]: R

SMILES: COc1ccc(C=C2SC(Nc3ccc(F)cc3)=NC2=O)c(OC)c1 [MMV084434]
Activity (PfA-M1 and/or PfA-M17) [5]: R

SMILES: COc1ccc(CCN2C(=O)c3[nH]nc(-c4cc(Cl)c(C)cc4O)c3C2c2ccccc2F)cc1 (stereo not drawn) [MMV396717]
Activity (PfA-M1 and/or PfA-M17) [5]: R

SMILES: O=C(NNc1cc(N2CCCC2)nc(N2CCCC2)n1)c1ccccc1 [MMV396770]
Activity (PfA-M1 and/or PfA-M17) [5]: R

reduction of PfA-M1 activity [2]: 75%
SMILES: Cc1cccc(-n2ncc3c(O)nc(-n4nc(C)cc4NC(=O)c4cc5ccccc5o4)nc32)c1 [MMV403679]
Activity (PfA-M1 and/or PfA-M17) [5]: R

SMILES: Oc1c(C(Nc2ccccn2)c2cccc(Oc3ccccc3)c2)ccc2cccnc12 (stereo not drawn) [MMV665814]
Activity (PfA-M1 and/or PfA-M17) [5]: R

SMILES: CCOC(=O)c1c(NC(=O)c2ccccc2)sc2c(O)c(CN(CC)CC)ccc12 [MMV665831]
Activity (PfA-M1 and/or PfA-M17) [5]: R

SMILES: COc1ccc(/C=C2/SC(=Nc3ccccc3)NC2=O)cc1 [MMV665836]
Activity (PfA-M1 and/or PfA-M17) [5]: R

SMILES: Cc1ccc(-c2cc(C(=O)Nc3ccc(S(=O)(=O)N4CCCCC4)cc3)[nH]n2)c(O)c1 [MMV665906]
Activity (PfA-M1 and/or PfA-M17) [5]: R

SMILES: COc1cccc(C(=O)NC(c2ccc(C)cc2)c2cc(Cl)c3cccnc3c2O)c1 (stereo not drawn) [MMV665969]
Activity (PfA-M1 and/or PfA-M17) [5]: R

SMILES: COc1ccc(C(=O)NC(c2ccccc2Cl)c2cc(Cl)c3cccnc3c2O)cc1 (stereo not drawn) [MMV666022]
Activity (PfA-M1 and/or PfA-M17) [5]: R

reduction of PfA-M1 activity [2]: 87%
SMILES: COc1ccc(C(=O)NC(c2ccc(Cl)cc2Cl)c2cc(Cl)c3cccnc3c2O)cc1 (stereo not drawn) [MMV666054]
Activity (PfA-M1 and/or PfA-M17) [5]: R

SMILES: COc1ccc(C=C2SC(=N)N(c3ccccc3OC)C2=O)cc1 [MMV666691]
Activity (PfA-M1 and/or PfA-M17) [5]: R
